Assay results from ChEMBL document CHEMBL1122370 (J Med Chem, 1983).

Columns and labels:
L1210 [1] = test: In vivo antitumor activity against L1210 leukemia in 5 mice measured as Increased life span at 20 mg/kg.; assay type: functional; settings: Mus musculus
L1210 [2] = test: In vivo antitumor activity against L1210 leukemia in 5 mice measured as median survival range at 40 mg/kg; Value ranges from (12-20); assay type: functional, Mus musculus
L1210 [3] = test: In vivo antitumor activity against L1210 leukemia in 13 mice measured as T/C values; T/C = 13/9; assay type: functional, Mus musculus
L1210 [4] = test: In vivo antitumor activity against L1210 leukemia in 5 mice measured as Increased life span at 40 mg/kg.; assay type: functional; settings: Mus musculus
Mus musculus [5] = test: Average weight of the mouse after treating with 20 mg/kg dose for 1 day.; assay type: functional; set-up: unit not given here
L1210 [6] = test: In vivo antitumor activity against L1210 leukemia in 5 mice measured as median survival range at 20 mg/kg; Value ranges from (11-15); assay type: functional, Mus musculus
L1210 [7] = test: In vivo antitumor activity against L1210 leukemia in 14 mice measured as T/C values; T/C = 14/9; assay type: functional, Mus musculus
Mus musculus [8] = test: Average weight of the mouse after treating with 40 mg/kg dose for 1 day.; assay type: functional; set-up: unit not given here
Mus musculus [9] = test: Average weight change in mouse after treating with 40 mg/kg dose for 7 days.; assay type: functional
Mus musculus [10] = test: Average weight change in mouse after treating with 20 mg/kg dose for 7 days.; assay type: functional; set-up: unit not given beside the values
Mus musculus [11] = test: Average weight of the mouse after treating with 10 mg/kg dose for 1 day.; assay type: functional; set-up: unit not given here
L1210 [12] = test: In vivo antitumor activity against L1210 leukemia in 5 mice measured as median survival range at 20 mg/kg; Value ranges from(13-22); assay type: functional, Mus musculus
Mus musculus [13] = test: Average weight of the mouse after treating with 40 mg/kg dose for 7 days.; assay type: functional; set-up: unit not given beside the values
Mus musculus [14] = test: (§1) Average weight of the mouse after treating with 20 mg/kg dose for 7 days.; assay type: functional; set-up: unit not given beside the values
L1210 [15] = test: In vivo antitumor activity against L1210 leukemia in 18 mice measured as T/C values; T/C = 18/9; assay type: functional, Mus musculus
L1210 [16] = test: In vivo antitumor activity against L1210 leukemia in 5 mice measured as median survival range at 10 mg/kg; Value ranges from(13-20); assay type: functional, Mus musculus
L1210 [17] = test: In vivo antitumor activity against L1210 leukemia in 17 mice measured as T/C values; T/C = 17/9; assay type: functional, Mus musculus
L1210 [18] = test: In vivo antitumor activity against L1210 leukemia in 5 mice measured as median survival range at 40 mg/kg; Value ranges from(22-27); assay type: functional, Mus musculus
L1210 [19] = test: In vivo antitumor activity against L1210 leukemia in 24 mice measured as T/C value; T/C = 24/9; assay type: functional, Mus musculus
Mus musculus [20] = test: Average weight of the mouse after treating with 10 mg/kg dose for 7 days.; assay type: functional
L1210 [21] = test: In vivo anti tumor activity against L1210 leukemia in 5 mice measured as Increased life span at 10 mg/kg.; assay type: functional; settings: Mus musculus
L1210 [22] = test: In vivo antitumor activity against L1210 leukemia in 5 mice measured as Increased life span at 10 mg/kg.; assay type: functional; settings: Mus musculus
L1210 [23] = test: In vivo antitumor activity against L1210 leukemia in 5 mice measured as median survival range at 10 mg/kg; Value ranges from(15-21); assay type: functional, Mus musculus
L1210 [24] = test: In vivo antitumor activity against L1210 leukemia in 15 mice measured as T/C values; T/C = 15/9; assay type: functional, Mus musculus
Mus musculus [25] = test: as §1; assay type: functional
L1210 [26] = test: In vivo antitumor activity against L1210 leukemia in 5 mice measured as median survival range at 20 mg/kg; Value ranges from(17-25); assay type: functional, Mus musculus
L1210 [27] = test: In vivo antitumor activity against L1210 leukemia in 14 mice measured as T/C values(days); T/C = 14/9; assay type: functional, Mus musculus
L1210 [28] = test: In vivo antitumor activity against L1210 leukemia in 5 mice measured as median survival range at 40 mg/kg; Value ranges from (11-21); assay type: functional, Mus musculus
Mus musculus [29] = test: Average weight change in mouse after treating with 10 mg/kg dose for 7 days.; assay type: functional
L1210 [30] = test: In vivo antitumor activity against L1210 leukemia in 5 mice measured as median survival range at 20 mg/kg; Value ranges from (12-16); assay type: functional, Mus musculus
L1210 [31] = test: In vivo antitumor activity against L1210 leukemia in 5 mice measured as median survival range at 10 mg/kg; Value ranges from (11-13); assay type: functional, Mus musculus
L1210 [32] = test: In vivo antitumor activity against L1210 leukemia in 12 mice measured as T/C values; T/C = 12/9; assay type: functional, Mus musculus
L1210 [33] = test: In vivo antitumor activity against L1210 leukemia in 5 mice measured as T/C values(days); T/C = 17/9; assay type: functional, Mus musculus

CCOCCOC(=O)CCC(NC(=O)c1ccc(N(C)Cc2cnc3nc(N)nc(N)c3n2)cc1)C(=O)OCCOCC (stereo not given)
ILS at 20 mg/kg (L1210 [1]): 44%
Range (L1210 [2]): 20
T/C (L1210 [3]): 9
ILS at 40 mg/kg (L1210 [4]): 55%
Average weight (Mus musculus [5]): 22.6
Range (L1210 [6]): 15
T/C (L1210 [7]): 9
Average weight (Mus musculus [8]): 23.1
Weight change (Mus musculus [9]): 0.5
Weight change (Mus musculus [10]): 1.5

CN(Cc1cnc2nc(N)nc(N)c2n1)c1ccc(C(=O)NC(CCC(=O)OCc2cc3c(cc2Cl)OCO3)C(=O)OCc2cc3c(cc2Cl)OCO3)cc1 (stereo not given)
ILS at 20 mg/kg (L1210 [1]): 100%
Average weight (Mus musculus [11]): 22.5
Range (L1210 [12]): 22
Weight change (Mus musculus [13]): 0.2
Weight change (Mus musculus [14]): 1
ILS at 40 mg/kg (L1210 [4]): 167%
Average weight (Mus musculus [5]): 22.2
T/C (L1210 [15]): 9
Range (L1210 [16]): 20
Average weight (Mus musculus [8]): 21.4
T/C (L1210 [17]): 11
Range (L1210 [18]): 27
T/C (L1210 [19]): 9
Weight change (Mus musculus [20]): 2.1
ILS at 10 mg/kg (L1210 [21]): 88%

CN(Cc1cnc2nc(N)nc(N)c2n1)c1ccc(C(=O)NC(CCC(=O)OCc2c(Cl)cccc2Cl)C(=O)OCc2c(Cl)cccc2Cl)cc1 (stereo not given)
ILS at 20 mg/kg (L1210 [1]): 167%
Average weight (Mus musculus [11]): 21.6
ILS at 10 mg/kg (L1210 [22]): 66%
Average weight (Mus musculus [5]): 22.4
Range (L1210 [23]): 21
T/C (L1210 [24]): 9
Weight change (Mus musculus [25]): 0.8
T/C (L1210 [19]): 9
Weight change (Mus musculus [20]): 1.4
Range (L1210 [26]): 25

CC(C)CCOC(=O)CCC(NC(=O)c1ccc(N(C)Cc2cnc3nc(N)nc(N)c3n2)cc1)C(=O)OCCC(C)C (stereo not given)
ILS at 20 mg/kg (L1210 [1]): 33%
Average weight (Mus musculus [11]): 21.9
ILS at 40 mg/kg (L1210 [4]): 88%
T/C (L1210 [27]): 14
Range (L1210 [28]): 21
Average weight (Mus musculus [5]): 23.7
Average weight (Mus musculus [8]): 23.2
Weight change (Mus musculus [29]): 3
Range (L1210 [30]): 16
Weight change (Mus musculus [9]): 1
Range (L1210 [31]): 13
ILS at 10 mg/kg (L1210 [21]): 33%
T/C (L1210 [32]): 12
Weight change (Mus musculus [10]): 1.9
T/C (L1210 [33]): 17
